# From ChEMBL document CHEMBL4359845, “Synthesis and Evaluation of Carbonic Anhydrase Inhibitors with Carbon Monoxide Releasing Properties for the Management of Rheumatoid Arthritis” (J Med Chem, 2019)
# Activity calls are given as the source filed them.
# Columns and labels:
# Carbonic anhydrase 1 [1] = target: T1, Carbonic anhydrase 1 (Homo sapiens, UniProt P00915); assay: Inhibition of recombinant human carbonic anhydrase 1 incubated for 15 mins prior to testing measured for 10 to 100 secs by phenol red-based stopped-flow CO2 hydration assay
# Carbonic anhydrase 2 [2] = target: T2, Carbonic anhydrase 2 (Homo sapiens, UniProt P00918); assay: Inhibition of recombinant human carbonic anhydrase 2 incubated for 15 mins prior to testing measured for 10 to 100 secs by phenol red-based stopped-flow CO2 hydration assay
# Carbonic anhydrase 9 [3] = target: T3, Carbonic anhydrase 9 (Homo sapiens, UniProt Q16790); assay: Inhibition of recombinant human carbonic anhydrase 9 incubated for 15 mins prior to testing measured for 10 to 100 secs by phenol red-based stopped-flow CO2 hydration assay
# Carbonic anhydrase 9 [4] = target: T3, Carbonic anhydrase 9; assay: Inhibition of recombinant human carbonic anhydrase 9 incubated for 6 hrs prior to testing measured for 10 to 100 secs by phenol red-based stopped-flow CO2 hydration assay
# Carbonic anhydrase 12 = Carbonic anhydrase 12 (Homo sapiens, UniProt O43570); assay: Inhibition of recombinant human carbonic anhydrase 12 incubated for 6 hrs prior to testing measured for 10 to 100 secs by phenol red-based stopped-flow CO2 hydration assay
# Carbonic anhydrase 1 [5] = target: T1, Carbonic anhydrase 1; assay: Inhibition of recombinant human carbonic anhydrase 1 incubated for 6 hrs prior to testing measured for 10 to 100 secs by phenol red-based stopped-flow CO2 hydration assay
# Carbonic anhydrase 2 [6] = target: T2, Carbonic anhydrase 2; assay: Inhibition of recombinant human carbonic anhydrase 2 incubated for 6 hrs prior to testing measured for 10 to 100 secs by phenol red-based stopped-flow CO2 hydration assay
# Carbonic anhydrase 4 = Carbonic anhydrase 4 (Homo sapiens, UniProt P22748); assay: Inhibition of recombinant human carbonic anhydrase 4 incubated for 15 mins prior to testing measured for 10 to 100 secs by phenol red-based stopped-flow CO2 hydration assay
# Rattus norvegicus [7] = assay: (§1) Antihyperalgesic activity in complete freund's adjuvant-induced Sprague-Dawley rat arthritis model assessed as increase in hind paw withdrawal reflex thresholds at 42.4 mg/kg, po administered 14 days post complete freund's adjuvant challenge and measured up to 45 mins by analgesiometry-based paw pressure test; assay type: functional, organism-based
# Rattus norvegicus [8] = assay: as §1, with “after 45” for “up”, “60” for “45”; assay type: functional, organism-based
# Rattus norvegicus [9] = assay: Effect on contralateral paw withdrawal reflex threshold in complete freund's adjuvant-induced Sprague-Dawley rat arthritis model at 42.4 mg/kg, po administered 14 days post complete freund's adjuvant challenge by analgesiometry-based paw pressure test; assay type: ADME, organism-based; details: in vivo, 336 h
# Rattus norvegicus [10] = assay: (§2) Antihyperalgesic activity in complete freund's adjuvant-induced Sprague-Dawley rat arthritis model assessed as decrease in weight burden on contralateral to ipsilateral paw at 42.4 mg/kg, po administered 14 days post complete freund's adjuvant challenge and measured up to 45 mins by incapacitance test; assay type: functional, organism-based
# Rattus norvegicus [11] = assay: as §1, with “100” for “42.4”, “15” for “45”; assay type: functional, organism-based
# Rattus norvegicus [12] = assay: as §1, with “100” for “42.4”, “after 15” for “up”, “60” for “45”; assay type: functional, organism-based
# Rattus norvegicus [13] = assay: Effect on contralateral paw withdrawal reflex threshold in complete freund's adjuvant-induced Sprague-Dawley rat arthritis model at 100 mg/kg, po administered 14 days post complete freund's adjuvant challenge by analgesiometry-based paw pressure test; assay type: ADME, organism-based; details: in vivo, 336 h
# Rattus norvegicus [14] = assay: as §2, with “100” for “42.4”, “15” for “45”; assay type: functional, organism-based
# T1 sequence (P00915 whole entry): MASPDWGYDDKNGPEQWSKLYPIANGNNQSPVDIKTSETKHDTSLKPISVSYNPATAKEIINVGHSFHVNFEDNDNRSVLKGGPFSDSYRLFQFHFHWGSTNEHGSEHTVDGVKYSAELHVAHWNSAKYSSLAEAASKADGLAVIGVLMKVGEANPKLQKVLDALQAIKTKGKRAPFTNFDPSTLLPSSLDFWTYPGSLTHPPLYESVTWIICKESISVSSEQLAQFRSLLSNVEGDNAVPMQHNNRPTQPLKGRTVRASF
# Carbonic anhydrase 12, sequence (O43570 whole entry): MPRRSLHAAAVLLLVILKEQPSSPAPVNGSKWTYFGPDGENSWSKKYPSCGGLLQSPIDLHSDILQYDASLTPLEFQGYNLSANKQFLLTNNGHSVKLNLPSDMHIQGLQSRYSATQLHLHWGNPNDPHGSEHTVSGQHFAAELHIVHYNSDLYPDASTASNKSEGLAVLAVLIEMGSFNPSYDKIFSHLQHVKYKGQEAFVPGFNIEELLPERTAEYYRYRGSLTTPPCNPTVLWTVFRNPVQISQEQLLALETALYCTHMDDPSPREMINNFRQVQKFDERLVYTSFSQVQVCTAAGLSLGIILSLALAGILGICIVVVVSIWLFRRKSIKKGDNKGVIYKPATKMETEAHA
# Carbonic anhydrase 4, sequence (P22748 whole entry): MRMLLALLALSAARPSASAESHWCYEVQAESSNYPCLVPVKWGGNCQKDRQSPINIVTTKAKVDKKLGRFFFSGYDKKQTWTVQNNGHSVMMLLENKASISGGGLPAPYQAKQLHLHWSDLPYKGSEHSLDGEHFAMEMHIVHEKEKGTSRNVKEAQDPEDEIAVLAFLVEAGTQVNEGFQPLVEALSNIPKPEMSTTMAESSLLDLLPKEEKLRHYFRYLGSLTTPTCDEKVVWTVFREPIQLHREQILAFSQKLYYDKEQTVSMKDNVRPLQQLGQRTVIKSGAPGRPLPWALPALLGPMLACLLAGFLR
smiles,measurement,setting,value
C#CCN(CC#C)CCCCOc1ccc(S(N)(=O)=O)cc1,Ki,Carbonic anhydrase 1 [1],817 nM
same,Ki,Carbonic anhydrase 2 [2],0.44 nM
same,Ki,Carbonic anhydrase 9 [3],3.8 nM
C#CCSc1ccc(S(N)(=O)=O)cc1,Ki,Carbonic anhydrase 1 [1],30.2 nM
same,Ki,Carbonic anhydrase 2 [2],29.5 nM
same,Ki,Carbonic anhydrase 9 [3],7.6 nM
C#CCNc1ccc2c(C)cc(=O)oc2c1,Ki,Carbonic anhydrase 9 [4],171 nM
same,Ki,Carbonic anhydrase 12,34.7 nM
C#CCOc1ccc2c(c1)C=CS(=O)(=O)O2,Ki,Carbonic anhydrase 1 [5],> 10000 nM
same,Ki,Carbonic anhydrase 2 [6],> 10000 nM
same,Ki,Carbonic anhydrase 9 [4],474 nM
same,Ki,Carbonic anhydrase 12,44.5 nM
C#CCNc1ccc(S(N)(=O)=O)cc1,Ki,Carbonic anhydrase 1 [1],852 nM
same,Ki,Carbonic anhydrase 2 [2],96.5 nM
same,Ki,Carbonic anhydrase 4,> 10000 nM
same,Ki,Carbonic anhydrase 9 [3],416 nM
same,Activity,Rattus norvegicus [7],Active
same,Activity,Rattus norvegicus [8],inactive
same,Activity,Rattus norvegicus [9],Non-Toxic
same,Activity,Rattus norvegicus [10],Active
C#CCOc1ccc2oc(=O)ccc2c1,Ki,Carbonic anhydrase 1 [5],> 10000 nM
same,Ki,Carbonic anhydrase 2 [6],> 10000 nM
C#CCOc1ccc2c(c1)OS(=O)(=O)C=C2,Ki,Carbonic anhydrase 1 [5],> 10000 nM
same,Ki,Carbonic anhydrase 2 [6],> 10000 nM
same,Ki,Carbonic anhydrase 9 [4],6190 nM
same,Ki,Carbonic anhydrase 12,30.3 nM
CC(C)Cc1ccc(C(C)C(=O)O)cc1 (stereo not given) [IBUPROFEN],Activity,Rattus norvegicus [11],Active
same,Activity,Rattus norvegicus [12],inactive
same,Activity,Rattus norvegicus [13],Non-Toxic
same,Activity,Rattus norvegicus [14],Active
